According to publication PMC6630718, “Discovery of Novel UV-Filters with Favorable Safety Profiles in the 5-Arylideneimidazolidine-2,4-dione Derivatives Group” (Molecules, 2019):

Legend:
[1] = In vitro stability in mouse liver microsomes; type: in vitro ADME; settings: for ester hydrolysis in the presence of microsomes: independently of the presence of a NADPH-regenerating system; for Probable Transformation / half-life at 20 µM / microsomal CLint at 20 µM: mouse liver microsomes; for half-life at 20 µM / microsomal CLint at 20 µM: mouse; for half-life at 20 µM: pH 7.4, mouse liver microsomes 0.8 mg/mL, 20 µM compound, NADPH-regenerating system, 37 °C, read-out: t ½; for microsomal CLint at 20 µM: pH 7.4, mouse liver microsomes, calculated from t1/2
Outline: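 Compound (20 µM) with mouse liver microsomes (0.8 mg/mL), potassium phosphate pH 7.4, NADPH-regenerating system, 37 °C for 15–60 min; parent remaining by UPLC/MS, two repeats. t1/2 from ln % remaining versus time; Clint = (incubation volume/protein) × 0.693/t1/2.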

[2] = Solubility in cosmetic solvents / macrogol formulations; type: physicochemical; settings: typical cosmetic solvents / formulations used
Description: The composition of formulations and concentration of tested compounds were based on their limited solubility. N-monosubstituted compounds 2a–2e were insoluble at desirable concentrations in the typical solvents used in cosmetic formulations such as alcohols, triacetin, surfactants, and co-surfactants. To dissolve compounds 2a and 2b before incorporation to the formulation DMSO: Tween 20 (1:9 w/w) was used, for less soluble 2c–2e it was necessary to use DMSO alone as solvent. […] Thus the detailed composition of the formulations is as follows: F1–Tween 20 43.2%, PEG-400 25%, PEG-1500 25%, Triacetin 4.8%, tested compound 2%; F2–Tween 20 43.2%, PEG-400 25%, PEG-1500 25%, DMSO 4.8%, tested compound 2%; F3–PEG-400 25%, PEG-1500 25%, DMSO 48%, tested compound 2%. Considering the disadvantages of currently reported macrogol formulations and the low concentration achieved for the tested compounds (2%), we plan to work on cosmetic emulsions containing the most promising derivatives at higher concentrations as well as required excipients including preservatives, antioxidants, etc. This research will be carried out in the near future.

Row | Structure (SMILES) | ester hydrolysis in the presence of microsomes [1] | Probable Transformation [1] | half-life at 20 µM [1] | microsomal CLint at 20 µM [1] | solubility (in words) [2]
1 | CCOC(=O)CN1C(=O)/C(=C/C=C/c2ccc(OC)cc2)N(CC(=O)OCC)C1=O [Compound 4g, Diethyl 2,2′-((Z)-4-((E)-3-(4-methoxyphenyl)allylidene)-2,5-dioxoimidazolidine-1,3-diyl)diacetate] | hydrolysed to monoesters | hydrolysis O-dealkylation | 3 min | > 300 µL/min/mg | –
2 | CCOC(=O)CN1C(=O)/C(=C/c2ccc(OC)cc2)N(CC(=O)OCC)C1=O [Compound 3b, Diethyl 2,2′-((Z)-4-(4-methoxybenzylidene)-2,5-dioxoimidazolidine-1,3-diyl)diacetate] | hydrolysed to monoesters | hydrolysis O-dealkylation | 12 min | 75 µL/min/mg | very good solubility
